Reference: patent US8653298B2, “Biphenyl acetate, preparation and uses thereof” (Shijiazhuang Yiling Pharmaceutical Co., Ltd., priority 2006, dated 2014)
“Also recorded” adds a separate entry of the source. Structures can show the parent of a compound that is named as a salt.

Columns and labels:
NIH mice [1] = assay: twist reaction caused by glacial acetic acid; conditions: 3-48 mg/kg
Protocol: After testing, the 110 NIH mice are divided into eleven groups randomly, which means each group has 10 mice, and each of the mice has a weight between 15 and 17 grams. The numbers and dosage of the biphenyl acetic ammonia butantriol slat are 1, 2, 3, 4, 5 and 3, 6, 12, 24, 48 mg/kg respectively. The numbers and dosage of flurbiprofen axetil are 1, 2, 3, 4, 5, and 3, 6, 12, 24, 48 respectively also. The medicine and weight ratio is 0.1 ml medicine/10 g weight. Meanwhile, we give the same quantity of saline solution to the contrast group. After 30 minutes, the mixture solution is injected into the vein according to its weight ratio 0.1 ml liquid/10 gram weight for HAc painful.

Kunming mouse = assay: swelling of the mouse ear caused by dimethyl benzene; conditions: 3-48 mg/kg
From the text: Total numbers of 110 Kunming mice are used, male, 15-17 g, medical inspection for 3 days.
After testing, the mice are divided into eleven groups randomly and each group contains 10 mice. The numbers and dosage of the biphenyl acetic ammonia butantriol slat are 1, 2, 3, 4, 5 and 3, 6, 12, 24, 48, respectively. The numbers and dosage of flurbiprofen axetil are 1, 2, 3, 4, 5, and 3, 6, 12, 24, 48 respectively. Use the dimethybenzene to make the mouse ear swelling, and use the mouse left ear as the contrast group. After 30 minutes, the mixing liquid is injected into the vein according to its weight ratio 0.1 ml liquid/10 gram weight. Use a punch, having the diameter of 8 mm, to punch the same hole in two different ears. Weight it by very high quality scale. Finally, the swelling ratio is: the weight of right ear plus the weight of left ear.

[2] = stable test of the injection (influence, acceleration, long term); assay type: physicochemical
From the text: The purpose is to investigate the regular change of this product which has the influence of temperature, humidity, and light intensity, and offer producing, packaging, and transporting condition for this medicine. At the same time, the effective date is established by passing this testing. According to the Chinese pharmacopia appendix XI X C, second edition, 2005(the rule of medicine stability testing direction) and “The important stability item-list of bulk drug and pharmaceutical preparation” which is in “The researching directive rule of chemical medicine and therapeutic biological products” determines the important item-list, which includes gender character, PH value, relative materials, asepsis, thermal source, assay, and so on. The testing result is below: […] In other words, the quality of the product is very stable. […] In other words, the quality of the product is very stable. […] In other words, the quality of the product is very stable.

solubility testing = assay type: physicochemical; conditions: for Conclusion (solubility): 25±2° C.
Protocol: According to Chinese medicine book in 2005 edition, the preparation of biphenyl acetic ammonia butantriol salt is made by different solvent. […] At first, mill the biphenyl acetic ammonia butantriol salt into flour and weight it, and add solvent into the biphenyl acetic ammonia butantriol salt. Second, at 25±2° C., wave the mixer solution every 5 minutes for 30 seconds, and inspect the dissolve situation. Repeat three times and the result is illustrated in Table 1.

female Kunming mouse = assay: analgesia, mice heating plate method; assay type: in vivo; conditions: for pain record on hot plate (55±0.5° C.): 240 mg/kg
Protocol: Pick the female Kunming mouse, each having the weight between 20 to 22 grams. At first, test their sensitive towards pain. Put the mouse on the hot plate with the temperature of 55±0.5° C., and calculate how much pain does the mouse has by determining how many times they lick their back leg. Eliminate the mice seem to like to jump and the mice has no respond for 30 seconds. Pick a total of 60 mice having sensitive to pain and divide them into 5 groups randomly. […] The dosage of biphenyl acetic ammonia butantriol salt is divided into low, medium, and high dosage, correspondingly to 4, 12, 36 mg/kg, and normal dosage ⅓, 1, 3 respectively. And there is a positive contrast group. […] On the other hand, the saline is injected into the vein in the contrast group. Use epilation to remove the hair of the back leg of the mouse. Record the painful of every mouse before giving drug, and record the painful after giving drug 1 hour. After the mouse licks its foot, remove the hot plate immediately. Do the same record again at the second and third hour after giving drug. Do the t inspect, and judge its effects on easing pain.

in vivo = conditions: both, NIH, mouse, in vivo
From the text: (§1) A total amount of 40 NIH mice, 19-21 gram, (half of the mice are male and half of the mice are female), it is divided into two groups: medicine group and the contrast group. […] The contrast is given by the […] liquid. Investigation and record the poison effect on the mice and the amount of mice death.

NIH mice [3] = assay: in vivo
From the text: as §1

[4] = test system: 2% red blood cell's suspending liquid; assay: hemolytic testing outside the body (visual); assay type: cell-based, rabbit; conditions: low concentration 0.63 mg/ml
Protocol: Take 0.5 ml the biphenyl acetic ammonia butantriol salt solution and dilute it with 0.9 % NaCl solution (0.9 g/100 ml) to 6.25 ml.
Take 2 ml the biphenyl acetic ammonia butantriol salt solution and dilute it with 0.9 % NACL (0.9 g/100 ml) solution to 6.0 ml.
Take few milliliters of rabbit blood into a triangular flask and shake it for 10 minutes. Remove the fiber egg white, and get non-fiber blood. Separate the blood solution into few centrifuge tubes. Add ten times of 0.9% NaCl solution, well mixing, and centrifuge (1500 turns/minutes, 15 minutes) to remove the supernatant. Use 0.9% NaCl solution to wash the precipitation red blood two or three times until the supernatant is not red anymore. Use the red blood to mix the 0.9% NaCl solution to make 2% suspending liquid for test use.
Take the same size of opening of 7 clean test tubes and number them. Add the 0.9% NaCl solution, the injection water, medicine, and the 2% suspending liquid followed by Table 9. After well mixing, put them in the temperature chamber at 37° C. Inspect them every 15 minutes. After 1 hour, inspect them every one hour for 3 hours.
If testing solution presents clearly red, no cellular residual under the tube, and few cellular residual, it can determines that haemolysis happens. If red cells all sink, and supernatant fluid presents no color, it can present that haemolysis doesn't happen. […]

NIH mice [5] = assay: test of stomach channel, oral administration; conditions: 212 mg/kg oral, fasted 24 hours, stomach dissected after 48 hours
Protocol: NIH mice are divided into two groups randomly. […] Dissect stomach after 48 hours. Use 10% methylene oxide. Cut the stomach along the curve of stomach, and calculate the percentage of an ulcer canker.

[6] = solvent Acetone, 8.9 g in 150 ml
[7] = solvent Acetonitrile, 9.1 g in 150 ml
[8] = solvent Alcohol, 14.3 g in 10 ml
[9] = solvent Formamide, 0.2137 g in 6 ml
[10] = solvent Methanol, 0.1135 g in 3 ml
[11] = both, NIH, mouse, in vivo, 14 days

SMILES: O=C(O)Cc1ccc(-c2ccccc2)cc1 [biphenyl acetic ammonia butantriol salt]
- effect towards the mouse twisted caused by glacial acetic acid compared with flurbiprofen axetil injection (NIH mice [1]): no significantly difference
- effect towards the swelling ear caused by dimethybenzene compared with flurbiprofen axetil (Kunming mouse): no significantly difference
- long term test: change of the product ([2]; 25° C., relative humidity 25%, 3 months): no significantly change
- acceleration test: change of the product ([2]; 40±2° C., relative humidity 75±5%, 3 months): no significantly change
- influence test: change of the product ([2]; 60° C., relative humidity 92.5±5%, light intensity 4500±500 lx, 10 days): no significantly change
- The dissolving condition (solubility testing; [6]): Completely
- Conclusion (solubility) (solubility testing; [6]): Undissolvable
- The dissolving condition (solubility testing; [7]): Completely
- Conclusion (solubility) (solubility testing; [7]): Undissolvable
- The dissolving condition (solubility testing; [8]): Completely
- Conclusion (solubility) (solubility testing; [8]): just a few dissolve; also recorded: Slightly
- The dissolving condition (solubility testing; [9]): Completely
- Conclusion (solubility) (solubility testing; [9]): Dissolved
- The dissolving condition (solubility testing; [10]): Completely
- Conclusion (solubility) (solubility testing; [10]): Dissolved
- The dissolving condition (solubility testing; solvent Water, 14.1 g in 10 ml): Completely
- Conclusion (solubility) (solubility testing; solvent Water, 14.1 g in 10 ml): just a few dissolve; also recorded: Slightly
- time which mouse is standing on the hot plate compared to the contrast group (female Kunming mouse; first, second and third hour after giving drugs): significantly extends
- LD50 at 14 days (in vivo; LD50): > 940 mg/kg
- LD50 at 14 days (in vivo; LD50 of the salt stated as biphenyl phenylacetic acid): 589 mg/kg
- mouse death (NIH mice [3]; 940 mg/kg total for one day, 14 days after injection): no mouse went death
- maximum enduring quantity (NIH mice [3]; [11]): over 940 mg/kg
- tolerance value (NIH mice [3]; [11]): 940 mg/kg
- poison effect on the mice after injection (NIH mice [3]; mouse, in vivo): barely to move
- blood absorbing reaction within 3 hours [4]: no blood absorbing reaction

SMILES: CC(=O)O.c1ccc(-c2ccccc2)cc1 [Biphenyl acetate]
- Number of ulcer animals/Sum of total animals (NIH mice [5]): 13/15

SMILES: CC(=O)Oc1ccccc1C(=O)O [Lysine Acetyl-salicylate]
- pain record on hot plate (55±0.5° C.) (female Kunming mouse; 1 hour): 31.08 ± 4.26
- pain record on hot plate (55±0.5° C.) (female Kunming mouse; 2 hours): 30.35 ± 3.29
- pain record on hot plate (55±0.5° C.) (female Kunming mouse; 3 hours): 28.16 ± 2.97
